Tests used:
[1] = system: AMP-activated Protein Kinase (AMPK); assay: Hippocampal AMPK (western blot) after 10 days of oral drinking; assay type: in vivo, Wistar rats; conditions: oral by drinking 100 mg/Kg for 10 days, hippocampus, FIG. 10
Experimental: (§1) Animal experimental procedures were carried out in accordance with the European Communities directive 2010/63/EU and Spanish legislation (Real Decreto 53/2013). The protocol was approved by the Research and approved by Ethics Committee for Animal Experiments of the University of Malaga, Spain. In accordance with the ARRIVE guidelines, all efforts were made to minimize animal suffering and to reduce the number of animals used per experimental group. Chronic drinking experiments on Wistar rats were performed on 20 male rats. All adult rats, ageing 2 months (≈300 g of body weight), were provided by Charles River Laboratories (Barcelona, Spain). The animals were housed individually under a standard 12 h light-dark cycle in a room with temperature and humidity control. Water and rat chow pellets were provided ad libitum throughout the course of the present study. […]
(§2) Western Blot Analysis. […] Bands were quantified by densitometric analysis using ImageJ software (Rasband, WS, ImageJ, US National Institutes of Health, Bethesda, Md., USA). […] The results were expressed as the protein/α-Adaptin ratio or phosphorylated/total protein ratio and normalized to the control group (Y axis represents ‘fold mean of the control values’).
(§3) All data are expressed as mean±SEM. […]

Protein Kinase A (PKA) = assay: Hippocampal PKA (western blot) after 10 days of oral drinking; assay type: in vivo, Wistar rats; conditions: oral by drinking 100 mg/Kg for 10 days, hippocampus, FIG. 10A.2
Experimental: as §1, §2, §3

## COC1[C@@H](O)[C@@H](O)C(O)[C@H](O)[C@H]1O (stereo partly drawn) [DPIN, (1S,2S,4S,5R)-6-methoxycyclohexane-1,2,3,4,5-pentol]
[1]
  kinase activation and total expression of AMPK: No other changes
Protein Kinase A (PKA)
  total amount of PKA: significant increase
